Test results published in patent US20060030616A1, “Anhydride modified cantharidin analogues useful in the treatment of cancer” (priority 1998, published 2006).

Columns and labels:
HCT116 cells = test: Combination studies, Median Effect Method (MTT); type: cell-based, human; settings: simultaneous
Experimental: (§1) Those protein phosphatase inhibitors which show abrogation of either the G1 or G2 checkpoint will then be exploited in combination studies with either radiation exposure or chemotherapy drugs incubation. The MTT (3-[4,5-dimethylthiazol-2-yl]2,5-diphenyl-tetrazolium bromide) assay is used to determine whether a synergistic, antagonistic or additive effect is induced. The Median Effect method is adopted to mathematically determine the optimal combination index of the treatments chosen (Chou and Talalay, 1984). This method has been extensively used to investigate the cytotoxicity of various drug combinations including cisplatin and D1694 (Ackland et al 1996; 1998). A combination index value less than 1 indicates synergism, a value equal to 1 indicates additivity and a value greater than one indicates antagonism.
(§2) The cell lines listed above are exposed continuously to cisplatin and the phosphatase inhibitor in various drug ratio combinations for 72 h and then assayed for cytotoxicity; Similarly, the cells are exposed to 8 Gy of radiation and incubated with the phosphatase inhibitor and assessed for cytotoxicity at 72 h.
(§3) This method tests the cytotoxicity of various drug combinations from which a combination index can be calculated. A value of greater than one indicated antagonism, a value equal to 1 indicates additivity, while a value less than one indicates synergism. The HT29 and HCT116 cell lines were chosen as they have differing p53 status and they represent the tumour types that responded the greatest to cantharidin and its analogues.

HT29 cells = test: Combination studies, Median Effect Method (MTT); type: cell-based, human; settings: simultaneous
Experimental: as §1, §2, §3

O=C1OC(O)C2C3CCC(O3)C12 (stereo not shown) [MK-4]
Combination response with taxotere (HCT116 cells): synergistic
Combination response with cisplatin (HCT116 cells; molar ratios 1:1, 10:1, 1:10): additive
Combination response with cisplatin (HT29 cells; molar ratios 1:1, 10:1, 1:10): additive
Combination response with taxotere (HT29 cells; ratios 1:10, 1:100, 1:1000 (Taxotere: MK-4)): additive
